Measurements taken from patent US20150018311A1, “THERAPEUTIC BORON-CONTAINING COMPOUNDS” (priority 2012, published 2015).

Assays:
Test in all cases: Growth in liquid media in presence of test compound
Format in all cases: cell-based
[1] = test system: Mycobacterium tuberculosis (H37Rv)
[2] = test system: Escherichia coli (ATCC 25922)
Description: (§1) Test organisms used were the bacterial strains Escherichia coli (ATCC 25922), Pseudomonas aeruginosa (ATCC 27853), Staphylococcus aureus (ATCC 25923), Streptococcus pyogenes (ATCC 19615), and Mycobacterium tuberculosis (H37Rv), and the yeast strain Candida albicans (ATCC 90028).
(§2) The liquid media used for growth were Luria-Bertani (Becton Dickinson, Sparks, Md.) and Mueller-Hinton (bio-Merieux, Paris, France) broths, but with Saburo medium for Candida and Middlebrook 7H9 medium (Difco) for mycobacteria.
(§3) The strains were grown at 37° C. and after suitable cell concentrations had been reached, 100 μL of each cell suspension was added to a tube with growth media and test compound. Cultivation of the bacteria was then carried out in the presence of each test compound at 37° C. and the tubes examined for visible growth. The compounds were tested at concentrations of either 500 mg/l, 50 mg/l or 5 mg/l. This assay was repeated twice.
(§4) Some compounds were only tested against some test organisms. It will be appreciated that the charge of these molecules will depend on the environment, some of the Examples are shown with a suitable counter ion, some without.

[3] = test system: Candida albicans (ATCC 90028)
Description: as §1, §2, §3, §4

[4] = test system: Streptococcus pyogenes (ATCC 19615)
Description: as §1, §2, §3, §4

[5] = test system: Pseudomonas aeruginosa (ATCC 27853)
Description: as §1, §2, §3, §4

[6] = test system: Staphylococcus aureus (ATCC 25923)
Description: as §1, §2, §3, §4

Compound	Growth in the presence of test compound, M. tuberculosis ([1]; 5 mg/L)	Growth in the presence of test compound, M. tuberculosis ([1]; 50 mg/L)	Growth in the presence of test compound, M. tuberculosis ([1]; 500 mg/L)	Growth in the presence of test compound, E. coli ([2]; 5 mg/L)	Growth in the presence of test compound, E. coli ([2]; 50 mg/L)	Growth in the presence of test compound, E. coli ([2]; 500 mg/L)	Growth in the presence of test compound, C. albicans ([3]; 5 mg/L)	Growth in the presence of test compound, C. albicans ([3]; 50 mg/L)	Growth in the presence of test compound, C. albicans ([3]; 500 mg/L)	Growth in the presence of test compound, S. pyogenes ([4]; 5 mg/L)	Growth in the presence of test compound, S. pyogenes ([4]; 50 mg/L)	Growth in the presence of test compound, S. pyogenes ([4]; 500 mg/L)	Growth in the presence of test compound, P. aeruginosa ([5]; 5 mg/L)	Growth in the presence of test compound, P. aeruginosa ([5]; 50 mg/L)	Growth in the presence of test compound, P. aeruginosa ([5]; 500 mg/L)	Growth in the presence of test compound, S. aureus ([6]; 5 mg/L)	Growth in the presence of test compound, S. aureus ([6]; 50 mg/L)	Growth in the presence of test compound, S. aureus ([6]; 500 mg/L)
CC1(C)C2CC3OB(CC(CCc4ccccc4)NC(=O)C(N)CCCCN)OC3(C)C1C2 (stereo not drawn) [Compound 7]	+	+	−	+	+	−	+	+	−	+	+	−	+	+	±	+	+	−
CC1(C)C2CC3OB([C@@H](CNC(=O)[C@@H](N)CCCNC(=N)N)Cc4ccccc4)O[C@]3(C)C1C2 (stereo partly drawn) [Compound 11]	±	−	−	+	+	−	+	+	−	+	+	−	+	+	−	+	+	−
CC1(C)C2CC3OB([C@@H](CNC(=O)[C@H](N)CCCCN)Cc4ccccc4)O[C@]3(C)C1C2 (stereo partly drawn) [Compound 12]	±	−	−	+	+	−	+	+	−	+	+	−	+	+	±	+	+	±
CC1(C)C2CC3OB(C(CNC(=O)C(N)CCCCN)Cc4ccccc4)OC3(C)C1C2 (stereo not drawn) [Compound 13]	+	−	−	+	+	−	+	+	−	+	+	−	+	+	−	+	+	−
